Results published in patent US20070049593A1 (priority 2004, published 2007).
pIC50: −log10 of the molar value. Structures can show the parent of a compound that is named as a salt.

The compounds below were run against T1, HCV polymerase (Hepatitis C virus genotype 1b, UniProt P26663) (assay: biochemical).
T1 construct: a region encoding NS5B (J Virol 1991 March, 65(3), 1105-13, 544 amino acids after deletion of 47 amino acids on the C-terminal); 6xHis (C); made in house; host or cells: Escherichia coli
T1 sequence (P26663 2420-2963): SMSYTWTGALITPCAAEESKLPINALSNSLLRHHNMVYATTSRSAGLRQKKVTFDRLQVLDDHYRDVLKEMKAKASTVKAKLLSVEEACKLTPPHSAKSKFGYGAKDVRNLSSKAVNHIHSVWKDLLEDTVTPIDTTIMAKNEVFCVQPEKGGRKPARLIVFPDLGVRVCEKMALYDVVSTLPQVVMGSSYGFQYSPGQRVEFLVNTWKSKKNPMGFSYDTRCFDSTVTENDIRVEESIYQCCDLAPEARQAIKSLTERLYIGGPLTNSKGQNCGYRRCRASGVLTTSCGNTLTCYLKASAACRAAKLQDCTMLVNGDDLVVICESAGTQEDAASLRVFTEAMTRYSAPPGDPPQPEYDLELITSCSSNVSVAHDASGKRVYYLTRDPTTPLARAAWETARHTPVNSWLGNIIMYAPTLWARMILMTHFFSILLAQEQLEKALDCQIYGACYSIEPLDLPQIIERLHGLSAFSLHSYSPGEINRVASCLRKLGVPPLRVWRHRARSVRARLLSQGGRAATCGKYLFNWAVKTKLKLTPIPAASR
Design: species or system HCV BK strain
In short: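 His-tagged NS5B (BK strain, 47-aa C-terminal deletion, E. coli-expressed) at 0.5 μg/ml copied 5 μg/ml run-off RNA bearing the HCV 3′ UTR with 2 μM UTP plus [3H]UTP, 50 μM ATP/GTP, in pH 7.5 Tris with 5 mM MgCl2, 25 °C, 90 min. TCA-precipitated RNA was counted and IC50 calculated.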
In the case of Cc1ccc2c(c1)N(CCCN(C(C)C)C(C)C)CCn1c-2c(C2CCCCC2)c2ccc(C(=O)O)cc21 [Example 1-521, 13-cyclohexyl-5-(3-diisopropylaminopropyl)-3-methyl-6,7-dihydro-5H-benzo[5,6][1,4]diazepino[7,1-a]indole-10-carboxylic acid dihydrochloride], the pIC50 was over 7.00.
In the case of O=C(O)c1ccc2c(C3CCCCC3)c3n(c2c1)CCN(CCN1CCCCC1)c1cc(OC(F)(F)F)ccc1-3 [Example 1-522, 13-cyclohexyl-5-[2-(piperidin-1-yl)ethyl]-3-trifluoromethoxy-6,7-dihydro-5H-benzo[5,6][1,4]diazepino[7,1-a]indole-10-carboxylic acid dihydrochloride], the pIC50 was over 7.00.
COCC[C@@H]1CCCN(CCN2CCn3c(c(C4CCCCC4)c4ccc(C(=O)O)cc43)-c3ccc(OC(F)(F)F)cc32)C1 [Example 1-523, 13-cyclohexyl-5-{2-[(S)-3-(2-methoxyethyl)piperidin-1-yl]ethyl}-3-trifluoromethoxy-6,7-dihydro-5H-benzo[5,6][1,4]diazepino[7,1-a]indole-10-carboxylic acid dihydrochloride] showed a pIC50 of over 7.00.
With CCN(CCCN1CCn2c(c(C3CCCCC3)c3ccc(C(=O)O)cc32)-c2ccc(C)cc21)C(C)C [Example 1-524, 13-cyclohexyl-5-[3-(N-ethyl-N-isopropylamino)propyl]-3-methyl-6,7-dihydro-5H-benzo[5,6][1,4]diazepino[7,1-a]indole-10-carboxylic acid dihydrochloride] the pIC50 was over 7.00.
COC1CCCN(CCN2CCn3c(c(C4CCCCC4)c4ccc(C(=O)O)cc43)-c3ccc(C)cc32)CC1 (stereo not shown) [Example 1-525, 13-cyclohexyl-5-[2-(4-methoxyazepan-1-yl)ethyl]-3-methyl-6,7-dihydro-5H-benzo[5,6][1,4]diazepino[7,1-a]indole-10-carboxylic acid dihydrochloride] gave a pIC50 of over 7.00.
Cc1ccc2c(c1)N(CCN1CCC(=O)N(C)CC1)CCn1c-2c(C2CCCCC2)c2ccc(C(=O)O)cc21 [Example 1-526, 13-cyclohexyl-3-methyl-5-[2-(4-methyl-5-oxo-1,4-diazepan-1-yl)ethyl]-6,7-dihydro-5H-benzo[5,6][1,4]diazepino[7,1-a]indole-10-carboxylic acid dihydrochloride] was tested, and the pIC50 was over 7.00.
Compound Cc1ccc2c(c1)N(CCN1CCC[C@@H](CC(=O)N(C)C)C1)CCn1c-2c(C2CCCCC2)c2ccc(C(=O)O)cc21 [Example 1-527, 13-cyclohexyl-5-{2-[(S)-3-(dimethylcarbamoylmethyl)piperidin-1-yl]ethyl}-3-methyl-6,7-dihydro-5H-benzo[5,6][1,4]diazepino[7,1-a]indole-10-carboxylic acid dihydrochloride] has a pIC50 of over 7.00.
Work on COCCOC[C@@H]1CCCN(CCN2CCn3c(c(C4CCCCC4)c4ccc(C(=O)O)cc43)-c3ccc(C)cc32)C1 [Example 1-528, 13-cyclohexyl-5-{2-[(R)-3-(2-methoxyethoxymethyl)piperidin-1-yl]ethyl}-3-methyl-6,7-dihydro-5H-benzo[5,6][1,4]diazepino[7,1-a]indole-10-carboxylic acid dihydrochloride] yielded a pIC50 of over 7.00.
With Cc1ccc2c(c1)N(CCN1CCC[C@@H](CC(C)(C)O)C1)CCn1c-2c(C2CCCCC2)c2ccc(C(=O)O)cc21 [Example 1-529, 13-cyclohexyl-5-{2-[(S)-3-(2-hydroxy-2-methylpropyl)piperidin-1-yl]ethyl}-3-methyl-6,7-dihydro-5H-benzo[5,6][1,4]diazepino[7,1-a]indole-10-carboxylic acid dihydrochloride] the pIC50 was over 7.00.
Compound COC[C@@H]1CCCN(CCN2CCn3c(c(C4CCCCC4)c4ccc(C(=O)O)cc43)-c3cc(F)c(F)cc32)C1 [Example 1-530, 13-cyclohexyl-2,3-difluoro-5-[2-7((R)-3-methoxymethylpiperidin-1-yl)ethyl]-6,7-dihydro-5H-benzo[5,6][1,4]diazepino[7,1-a]indole-10-carboxylic acid dihydrochloride] has a pIC50 of over 7.00.
CCN(CCCOC)CCN1CCn2c(c(C3CCCCC3)c3ccc(C(=O)O)cc32)-c2ccc(C)cc21 [Example 1-531, 13-cyclohexyl-5-{2-[N-ethyl-N-(3-methoxypropyl)amino]ethyl}-3-methyl-6,7-dihydro-5H-benzo[5,6][1,4]diazepino[7,1-a]indole-10-carboxylic acid dihydrochloride] was tested, and the pIC50 was over 7.00.
Cc1ccc2c(c1)N(CCN1CCOCC(C)C1)CCn1c-2c(C2CCCCC2)c2ccc(C(=O)O)cc21 (stereo not shown) [Example 1-532, 13-cyclohexyl-3-methyl-5-[2-(6-methyl-1,4-oxazepan-4-yl)ethyl]-6,7-dihydro-5H-benzo[5,6][1,4]diazepino[7,1-a]indole-10-carboxylic acid dihydrochloride] was tested, and the pIC50 was over 7.00.
For Cc1ccc2c(c1)N(CCN1CCC[C@@H](C(C)(C)O)C1)CCn1c-2c(C2CCCCC2)c2ccc(C(=O)O)cc21 [Example 1-533, 13-cyclohexyl-5-{2-[(R)-3-(1-hydroxy-1-methylethyl)piperidin-1-yl]ethyl}-3-methyl-6,7-dihydro-5H-benzo[5,6][1,4]diazepino[7,1-a]indole-10-carboxylic acid dihydrochloride], the pIC50 was over 7.00.
With COCCN1CCCC(CCN2CCn3c(c(C4CCCCC4)c4ccc(C(=O)O)cc43)-c3ccc(Cl)cc32)C1 (stereo not shown) [Example 1-534, 3-chloro-13-cyclohexyl-5-{2-[1-(2-methoxyethyl)piperidin-3-yl]ethyl}-6,7-dihydro-5H-benzo[5,6][1,4]diazepino[7,1-a]indole-10-carboxylic acid dihydrochloride] the pIC50 was over 7.00.
Cc1noc(C)c1COc1ccc2c(c1)N(CCN(C)C)CCn1c-2c(C2CCCCC2)c2ccc(C(=O)O)cc21 [Example 1-535, 13-cyclohexyl-5-(2-dimethylaminoethyl)-3-(3,5-dimethylisoxazol-4-ylmethoxy)-6,7-dihydro-5H-benzo[5,6][1,4]diazepino[7,1-a]indole-10-carboxylic acid dihydrochloride] gave a pIC50 of over 7.00.
Cc1ccc2c(c1)N(CCN1CCCC(=O)CC1)CCn1c-2c(C2CCCCC2)c2ccc(C(=O)O)cc21 [Example 1-536, 13-cyclohexyl-3-methyl-5-[2-(4-oxoazepan-1-yl)ethyl]-6,7-dihydro-5H-benzo[5,6][1,4]diazepino[7,1-a]indole-10-carboxylic acid dihydrochloride] was tested, and the pIC50 was over 7.00.
In the case of Cc1ccc2c(c1)N(CCN1CCC[C@@H](CCC(=O)N(C)C)C1)CCn1c-2c(C2CCCCC2)c2ccc(C(=O)O)cc21 [Example 1-537, 13-cyclohexyl-5-{2-[(S)-3-(2-dimethylcarbamoylethyl)piperidin-1-yl]ethyl}-3-methyl-6,7-dihydro-5H-benzo[5,6][1,4]diazepino[7,1-a]indole-10-carboxylic acid dihydrochloride], the pIC50 was over 7.00.
Compound Cc1ccc2c(c1)N(CCN1CCCC(O)CC1)CCn1c-2c(C2CCCCC2)c2ccc(C(=O)O)cc21 (stereo not shown) [Example 1-538, 13-cyclohexyl-5-[2-(4-hydroxyazepan-1-yl)ethyl]-3-methyl-6,7-dihydro-5H-benzo[5,6][1,4]diazepino[7,1-a]indole-10-carboxylic acid dihydrochloride] has a pIC50 of over 7.00.
Compound CCN(CCCCOC)CCN1CCn2c(c(C3CCCCC3)c3ccc(C(=O)O)cc32)-c2ccc(C)cc21 [Example 1-539, 13-cyclohexyl-5-{2-[N-ethyl-N-(4-methoxybutyl)amino]ethyl}-3-methyl-6,7-dihydro-5H-benzo[5,6][1,4]diazepino[7,1-a]indole-10-carboxylic acid dihydrochloride] has a pIC50 of over 7.00.
